Usually inhibition stands for the percentage by which the read-out fell short of the control.

Structures are written as SMILES.

One compound from patent publication US20190209581A1, “DOSAGE REGIMEN FOR TREATMENT OF SOLID TUMORS” (Eli Lilly and Company, priority 2016, published 2019) can be followed below.

The test system of experiment [1] is HEL 92.1.7 human erythroleukemia cell line. The experiment can be described thus: Tumor growth inhibition, HEL 92.1.7 xenograft. It counts as in vivo. Conditions: HEL 92.1.7 in mice, oral 8 mg/kg, Q2dx14; p NS. The procedure:
(§1) To evaluate in vivo efficacy and effect of 4,4,4-Trifluoro-N-[(1S)-2-[[(7S)-5-(2-hydroxyethyl)-6-oxo-7H-pyrido[2,3-d][3]benzazepin-7-yl]amino]-1-methyl-2-oxo-ethyl]butanamide on inhibition of Notch processing pharmacodynamics (PD), several cell lines- and patient-derived xenograft models are used. A2780 is a human ovarian cell line (Sigma-Aldrich, No. 93112519); SW480 is a human colorectal cell line (ATCC No. CCL-228); HCT 116 is a human colorectal cell line (ATCC No. CCL-247); U-87 MG is a human glioblastoma cell line (ATCC No. HTB-14); A375 is a human malignant melanoma cell line (ATCC No. CRL-1619); K-562 is a human chronic myelogenous leukemia (CML) cell line characterized by the presence of a fusion transcript comprised of the Bcr and Abl1 genes (ATCC No. CCL-243); Jurkat; HEL 92.1.7 is a human erythroleukemia cell line (ATCC No. TIB-180). […] Tumor growth and body weight are monitored over time to evaluate efficacy and signs of toxicity. Bidimensional measurements of tumors are performed twice a week and tumor volumes are calculated based on the following formula: (Tumor Volume)=[(L)×(W2)×(Π/6)] where L is mid-axis length and W is mid-axis width. […] The log volume data are analyzed with a two-way repeated measures analysis of variance by time and treatment using the MIXED™ procedures in SAS™ software (version 8.2). […]

Experiment [2] has as its system HCT 116 human colorectal cell line. The experiment can be described thus: Tumor growth inhibition, HCT 116 xenograft. Conditions: HCT 116 in mice, oral 8 mg/kg, (Mon, Wed, Fri)x4; p <0.05 to <0.01. It counts as in vivo. The procedure: as §1
The test system of experiment [3] is SW480 human colorectal cell line. The experiment can be described thus: Tumor growth inhibition, SW480 xenograft. It counts as in vivo. Conditions: SW480 in mice, oral 8 mg/kg, (Mon, Wed, Fri)x5; p <0.0001. The procedure: as §1
For experiment [4], the system named is N1ICD (cleaved Notch1). Briefly: N1ICD analysis (ELISA) in xenograft tumors. It counts as in vivo, human. The note with it: for % N1ICD Inhibition: 10 mg/kg (Q2Dx7), 11-days OFF. The procedure: To evaluate in vivo efficacy and effect of 4,4,4-Trifluoro-N-[(1S)-2-[[(7S)-5-(2-hydroxyethyl)-6-oxo-7H-pyrido[2,3-d][3]benzazepin-7-yl]amino]-1-methyl-2-oxo-ethyl]butanamide on inhibition of Notch processing pharmacodynamics (PD), several cell lines- and patient-derived xenograft models are used. A2780 is a human ovarian cell line (Sigma-Aldrich, No. 93112519); SW480 is a human colorectal cell line (ATCC No. CCL-228); HCT 116 is a human colorectal cell line (ATCC No. CCL-247); U-87 MG is a human glioblastoma cell line (ATCC No. HTB-14); A375 is a human malignant melanoma cell line (ATCC No. CRL-1619); K-562 is a human chronic myelogenous leukemia (CML) cell line characterized by the presence of a fusion transcript comprised of the Bcr and Abl1 genes (ATCC No. CCL-243); Jurkat; HEL 92.1.7 is a human erythroleukemia cell line (ATCC No. TIB-180). Each of the cell lines are obtained from the American Type Culture Collection (ATCC) at the ATCC number stated, except the A2780 cell line which is obtained from Sigma-Aldrich at the stated catalog number. The cells are grown in their respective, recommended culture media at 37° C. in 5% CO2 with humidity in the atmosphere. A2780 (2×10^6), SW480 (6×10^6), HCT 116 (6×10^6), U-87 MG (6×10^6), and A-375 (10×10^6) cells in a 1:1 matrigel mix (0.2 mL volume) are implanted by subcutaneous injection in the hind leg of 6-8 weeks of age athymic nude female mice (Harlan Laboratories). K-562 (6×10^6) cells in a 1:1 matrigel mix (0.2 mL volume) are implanted by subcutaneous injection in the hind leg of 6-8 weeks of age CD1 nμ/nμ female mice (Charles River Laboratories). HEL 92.1.7 (7×10^6) in a 1:1 matrigel mix (0.2 mL volume) are implanted by subcutaneous injection in the hind leg of 6-8 weeks of age CB17 severely combined immune deficient female mice (Taconic Farms). Patient-derived tumors are minced into 1-2 mm pieces and mixed with matrigel (1:1) in 0.2 ml volume and implanted by subcutaneous injection in the hind leg of 6-8 weeks of age athymic nude female mice (Harlan Laboratories). Patients-derived tumor models include: human colon carcinoma (EL2144), human triple negative invasive ductal breast carcinoma (EL1997), human colon carcinoma (EL1989, EL 1986), and human glioblastoma (EL 2056) with samples obtained after patient consent and hospital approval from IU Health, Methodist Hospital, Indianapolis, Ind., USA 46206. A total of 7 to 10 mice are used for each group. Just before implantation for A2780, SW480, HEL 92.1.7, A-375, K-562, and patient-derived tumor models, animals are irradiated (450 Total Body Irradiation). Mice are fed ad libitum on normal chow. Treatment is initiated with oral administration (gavage) of compound or vehicle (1% Na-CMC in 0.25% Tween®-80) in 0.2 mL volume when tumor size reached to 150±50 mm^3. At designated time points following treatment, animals are sacrificed by CO2 asphyxiation and cervical dislocation. Tumors are removed and used for PD response analysis. Tumor growth and body weight are monitored over time to evaluate efficacy and signs of toxicity. Bidimensional measurements of tumors are performed twice a week and tumor volumes are calculated based on the following formula: (Tumor Volume)=[(L)×(W2)×(Π/6)] where L is mid-axis length and W is mid-axis width. Tumor volume data are transformed to a log scale to equalize variance across time and treatment groups. The log volume data are analyzed with a two-way repeated measures analysis of variance by time and treatment using the MIXED™ procedures in SAS™ software (version 8.2). The correlation model for the repeated measures is spatial power. Treated groups are compared to the control group at each time point. The MIXED™ procedure is also used separately for each treatment group to calculate adjusted means and standard errors at each time point. Both analyses account for the autocorrelation within each animal and the loss of data that occurs when animals with large tumors are removed from the study early. […]
Background: ELISA stands for enzyme-linked immunosorbent assay.

Where [5] appears, read: Homo sapiens, A2780, 4 h, A2780 tumors 4 hours after last dose, Q2Dx13, p <0.0001.

For `C[C@H](NC(=O)CCC(F)(F)F)C(=O)N[C@@H]1C(=O)N(CCO)c2ncccc2-c2ccccc21` [Compound 1, 4,4,4-trifluoro-N-[(1S)-2-[[(7S)-5-(2-hydroxyethyl)-6-oxo-7H-pyrido[2,3-d][3]benzazepin-7-yl]amino]-1-methyl-2-oxo-ethyl]butanamide], the “% TGI” value in experiment [1] is recorded as 7.20 (NS) %; in experiment [2], 37.58 (<0.05 to %; in experiment [3], 61.00 (<0.0001) %. Also, the “% N1ICD Inhibition” value in experiment [4] (EL1989 tumors 4 hours after last dose, 8 mg/kg (Mon, Wed, Fri)x3, p <0.0001) is 79.2 (<0.0001) %; in experiment [4] (EL1997 tumors 4 hours after last dose, 8 mg/kg (Mon, Wed, Fri)x4, p <0.0001) it was 67.9 (<0.0001) %. Also, the inhibition at 8 mg/kg was found to be 84.9% in experiment [4] (Homo sapiens, 4 h, EL1986 tumors 4 hours after last dose, (Mon, Wed, Fri)x5, p <0.0001); 83.5% in experiment [4] (Homo sapiens, 4 h, EL2056 tumors 4 hours after last dose, (Mon, Wed, Fri)x5, p <0.0001); 71.7% in experiment [4] (setting [5]); 77.5% in experiment [4] (Homo sapiens, A-375, 4 h, A-375 tumors 4 hours after last dose, (Mon, Wed, Fri)x4, p <0.0001); 73% in experiment [4] (Homo sapiens, HCT-116, 4 h, HCT 116 tumors 4 hours after last dose, (Mon, Wed, Fri)x4, p =0.0005); 56.7% in experiment [4] (Homo sapiens, HEL 92.1.7, 4 h, HEL 92.1.7 tumors 4 hours after last dose, Q2dx14, p <0.0001). Besides, the inhibition at 8 mg/kg is 47.6% in experiment [4] (Homo sapiens, K562, 4 h, K-562 tumors 4 hours after last dose, (Mon, Wed, Fri)x4, p <0.0001); 72.5% in experiment [4] (Homo sapiens, SW480, 4 h, SW480 tumors 4 hours after last dose, (Mon, Wed, Fri)x5, p =0.0002); 87.8% in experiment [4] (Homo sapiens, U-87 MG, 4 h, U-87 MG tumors 4 hours after last dose, (Mon, Wed, Fri)x4, p <0.0001). Moreover, in experiment [4] (Homo sapiens, A2780, 4 h, A2780 tumors 4 hours after last dose, 1.5 mg/kg, QDx26, p <0.0001), testing at 1.5 mg/kg gave an inhibition of 59%. For the same compound, the inhibition at 3 mg/kg in experiment [4] (Homo sapiens, A2780, 4 h, A2780 tumors 4 hours after last dose, (BID)QDx7 + (BID)Q2Dx7, p 0.0004) was 50.7%; in experiment [4] (setting [5]) it was 58.6%; in experiment [4] (Homo sapiens, A2780, 4 h, A2780 tumors 4 hours after last dose, QDx21, p <0.0001), 62.8%. This compound also came in with an inhibition at 6 mg/kg in experiment [4] (Homo sapiens, A2780, 4 h, A2780 tumors 4 hours after last dose, 6 mg/kg, Q2Dx13, p <0.0001) of 60.7%. In experiment [4] (Homo sapiens, A2780, 4 h, A2780 tumors 4 hours after last dose, 7 mg/kg, Q2Dx13, p <0.0001), testing at 7 mg/kg gave an inhibition of 65.9%. Moreover, the inhibition at 10 mg/kg in experiment [4] (Homo sapiens, A2780, 4 h, A2780 tumors 4 hours after last dose, Q2Dx11, p <0.0001) was 68.5%; in experiment [4] (setting [5]) it was 74.8%; in experiment [4] (Homo sapiens, A2780, 4 h, A2780 tumors 4 hours after last dose, Q3Dx8, p <0.0001) it was 55.3%.
